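Assay format: 96-well plates, 48-hour exposure. Abbreviation: GI50, concentration required for 50% inhibition of growth.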 Active and inactive are the calls of the source. Rule as the data show it: active = GI50 up to about 1.1 µM and inactive = higher.
Columns and labels:
Assay in all cases: DTP human tumour cell line panel, 48 h
HOP-62 = tested on: HOP-62
K562 = tested on: K562
OVCAR-8 = tested on: OVCAR-8
NCI-H23 = tested on: NCI-H23
UO-31 = tested on: UO-31
IGROV-1 = tested on: IGROV-1
786-0 = tested on: 786-0
LOX IMVI = tested on: LOX IMVI
COLO 205 = tested on: COLO 205
SF-539 = tested on: SF-539
UACC-62 = tested on: UACC-62
CCRF-CEM = tested on: CCRF-CEM
SK-MEL-5 = tested on: SK-MEL-5
HCC 2998 = tested on: HCC 2998
MOLT-4 = tested on: MOLT-4
M19-MEL = tested on: M19-MEL
NCI-H226 = tested on: NCI-H226
M14 = tested on: M14
CAKI-1 = tested on: CAKI-1

Measured: GI50

COc1cccc(C2c3cc4c(cc3OC(O)(CO)C2C(=O)O)OCO4)c1.COc1cccc(C2c3cc4c(cc3OC3(O)COC(=O)C23)OCO4)c1 (configuration not stated)
inactive: HOP-62 > 100 µM | K562 37.7 µM | OVCAR-8 46 µM | NCI-H23 43.5 µM | UO-31 64.3 µM | IGROV-1 62.7 µM | 786-0 > 100 µM | LOX IMVI 52.1 µM | COLO 205 > 100 µM | SF-539 > 100 µM | UACC-62 33.5 µM | CCRF-CEM 37.6 µM | SK-MEL-5 67.1 µM | HCC 2998 > 100 µM | MOLT-4 35.7 µM | M19-MEL 76.9 µM | NCI-H226 50 µM | M14 48.8 µM

O=c1[nH]c2cc([N+](=O)[O-])ccc2nc1/C(=N/Nc1ccccc1)C(O)c1ccccc1Cl (configuration not stated)
inactive: HOP-62 62.5 µM | K562 42.5 µM | OVCAR-8 > 100 µM | NCI-H23 90.8 µM | UO-31 21.1 µM | IGROV-1 43.9 µM | 786-0 > 100 µM | LOX IMVI > 100 µM | COLO 205 39.7 µM | SF-539 44.9 µM | UACC-62 11.2 µM | CCRF-CEM 33.5 µM | SK-MEL-5 33 µM | HCC 2998 22.3 µM | MOLT-4 > 100 µM | M19-MEL 52.8 µM | NCI-H226 80.2 µM | M14 47.3 µM

O=S(O)CCCSSCCCCSSCCCS(=O)O
inactive: HOP-62 > 100 µM | K562 > 100 µM | OVCAR-8 > 100 µM | NCI-H23 > 100 µM | UO-31 > 100 µM | IGROV-1 > 100 µM | 786-0 > 100 µM | LOX IMVI > 100 µM | CAKI-1 > 100 µM | COLO 205 > 100 µM | SF-539 > 100 µM | UACC-62 > 100 µM | CCRF-CEM > 100 µM | SK-MEL-5 > 100 µM | HCC 2998 > 100 µM | MOLT-4 26.7 µM | M19-MEL > 100 µM | M14 > 100 µM

COc1ccc(/C=C2\CCCCC2=O)cc1
inactive: HOP-62 > 100 µM | K562 > 100 µM | OVCAR-8 > 100 µM | NCI-H23 > 100 µM | UO-31 > 100 µM | IGROV-1 > 100 µM | 786-0 > 100 µM | LOX IMVI > 100 µM | CAKI-1 92.5 µM | COLO 205 > 100 µM | SF-539 > 100 µM | UACC-62 > 100 µM | CCRF-CEM > 100 µM | SK-MEL-5 > 100 µM | MOLT-4 > 100 µM | M19-MEL > 100 µM | M14 > 100 µM

CC(=O)N1CCc2[nH]c3ccccc3c2CC1
inactive: HOP-62 > 100 µM | K562 > 100 µM | OVCAR-8 > 100 µM | NCI-H23 > 100 µM | IGROV-1 > 100 µM | 786-0 > 100 µM | LOX IMVI > 100 µM | CAKI-1 > 100 µM | COLO 205 > 100 µM | SF-539 > 100 µM | UACC-62 86.1 µM | CCRF-CEM > 100 µM | SK-MEL-5 > 100 µM | HCC 2998 > 100 µM | MOLT-4 > 100 µM | M19-MEL > 100 µM | M14 > 100 µM

COC(=O)C(c1ccc(OC)cc1)N1C(=O)[C@@H](NC(=O)c2ccccc2)[C@H]1[C@@H](C)O (some centres not stated)
inactive: HOP-62 > 100 µM | K562 > 100 µM | OVCAR-8 > 100 µM | NCI-H23 > 100 µM | UO-31 > 100 µM | IGROV-1 > 100 µM | 786-0 > 100 µM | LOX IMVI > 100 µM | COLO 205 > 100 µM | SF-539 > 100 µM | UACC-62 > 100 µM | CCRF-CEM > 100 µM | SK-MEL-5 > 100 µM | HCC 2998 > 100 µM | MOLT-4 > 100 µM | M19-MEL > 100 µM | NCI-H226 > 100 µM | M14 > 100 µM

O=C1C(Br)=CC2(C=C1Br)CCNC1=C2C(=O)c2ccccc2C1=O
inactive: HOP-62 16 µM | K562 7.89 µM | OVCAR-8 4.21 µM | NCI-H23 7.6 µM | IGROV-1 18.5 µM | 786-0 11.9 µM | LOX IMVI 4.24 µM | CAKI-1 21.6 µM | COLO 205 4.61 µM | UACC-62 8.59 µM | CCRF-CEM 3.57 µM | SK-MEL-5 11.6 µM | MOLT-4 3.75 µM | M19-MEL 4.66 µM | M14 18.4 µM

Cc1cc(CC(O)c2ccc(Cl)c(Cl)c2)nc(O)n1 (configuration not stated)
inactive: HOP-62 25.6 µM | K562 50.1 µM | OVCAR-8 46.1 µM | NCI-H23 27.5 µM | UO-31 54.1 µM | 786-0 17.6 µM | CAKI-1 21.7 µM | COLO 205 31 µM | UACC-62 50.9 µM | CCRF-CEM 48.8 µM | SK-MEL-5 57.4 µM | MOLT-4 > 10 µM | M19-MEL 58.6 µM | NCI-H226 26.9 µM | M14 32.8 µM

Cc1nc(NC(=S)NC(=O)c2ccc(Cl)c(Cl)c2)sc1C(=O)/C=C/c1ccccc1[N+](=O)[O-]
inactive: HOP-62 21.2 µM | K562 18.2 µM | OVCAR-8 28.1 µM | NCI-H23 20.9 µM | UO-31 20.8 µM | IGROV-1 24.5 µM | 786-0 17.8 µM | LOX IMVI 16.6 µM | CAKI-1 21.1 µM | COLO 205 18.4 µM | SF-539 19 µM | UACC-62 10.9 µM | CCRF-CEM 22.4 µM | HCC 2998 33.3 µM | MOLT-4 19.8 µM | M19-MEL 26.8 µM | M14 23.8 µM

O=C(O)C#CCO
inactive: HOP-62 > 100 µM | K562 > 100 µM | OVCAR-8 > 100 µM | NCI-H23 > 100 µM | UO-31 > 100 µM | IGROV-1 > 100 µM | 786-0 > 100 µM | LOX IMVI > 100 µM | CAKI-1 > 100 µM | COLO 205 > 100 µM | SF-539 > 100 µM | UACC-62 > 100 µM | CCRF-CEM > 100 µM | SK-MEL-5 > 100 µM | MOLT-4 > 100 µM | M19-MEL > 100 µM | M14 > 100 µM

O=[N+]([O-])c1cccc(C2=NN(c3ccccc3)C3c4ccccc4OCC23)c1 (configuration not stated)
inactive: HOP-62 > 100 µM | K562 75.3 µM | OVCAR-8 > 100 µM | NCI-H23 > 100 µM | UO-31 6.71 µM | IGROV-1 > 100 µM | 786-0 > 100 µM | LOX IMVI > 100 µM | COLO 205 > 100 µM | SF-539 > 100 µM | CCRF-CEM 91 µM | HCC 2998 > 100 µM | MOLT-4 > 100 µM | M19-MEL > 100 µM

C/C(CC(=O)Nc1cc(C)ccc1C)=N/N=C(N)N
inactive: HOP-62 > 100 µM | K562 > 100 µM | OVCAR-8 > 100 µM | NCI-H23 > 100 µM | UO-31 > 100 µM | IGROV-1 > 100 µM | 786-0 > 100 µM | LOX IMVI > 100 µM | COLO 205 > 100 µM | SF-539 > 100 µM | UACC-62 > 100 µM | CCRF-CEM > 100 µM | SK-MEL-5 > 100 µM | HCC 2998 > 100 µM | MOLT-4 > 100 µM | M19-MEL > 100 µM | NCI-H226 > 100 µM | M14 > 100 µM
